Test system: neuropathic pain (chronic constriction injury, CCI)
Assay: In vivo assessment of analgesic effect against neuropathic pain (Bennett model, chronic constriction injury, tactile allodynia with von Frey filaments)
Conditions: Rattus norvegicus, po, 1 h, male Sprague Dawley rats, 10 mg/kg orally, mechanical allodynia 60 minutes following administration, percentage of maximum possible effect from log g PWT, read-out: % MPE
Description: (ii) Vivo Assessment of Analgesic Effect Against Neuropathic Pain (Bennett Model)
Animals were prepared for testing, by use of a surgical procedure that induces neuropathic pain in one paw. IACUC guidelines for rodent survival surgery were followed. All surgical procedures were conducted on a clean, uncluttered surgical station. The area was wiped with a 70% ethanol solution before and after use. All instruments were sterilized by either autoclave or chemical sterilant (such as 2% glutaraldehyde>10 hours). Surgeons wore sterile gloves (for the initial procedure), clean lab coat or scrubs, hairnet or cap, and a half-mask respirator (when not working under a hood). Surgeons thoroughly washed their hands prior to donning sterile gloves. Gloves were disinfected in-between animals by cleansing with povidone iodine, chlorhexidine or 70% alcohol for at least 30 seconds. If multiple surgeries were performed, the instruments were cleaned and sterilized between procedures with hot glass beads (>10 seconds). To prevent thermal or chemical burns, the instruments were cooled by rinsing in sterile saline before use.
Male, Sprague Dawley® rats, 175-200 g were used for surgeries. To minimize post-operative dehydration/maintain blood volume during the surgery, warmed sterile saline or Lactate Ringers solution at 10-15 mL/kg was administered subcutaneously immediately before or after surgery. This facilitates better renal function and presumably anesthesia product excretion post surgery. For all surgical procedures, anesthesia was induced with 4-5% isoflurane. Anesthesia was maintained during surgery with 1-3% isoflurane. Following induction, the surgical site was carefully shaved and the exposed area was aseptically prepared with povidone-iodine scrub solution and 70% ethanol 2-3 times.
Chronic constriction injury (CCI), a model of neuropathic pain, was produced by following the method of Bennett and Xie (Bennett, G., et al. Pain, 1988, 33, 87-107). After site sterilization and anesthetic procedures outline above were completed, a 1.5 cm incision is made at the mid-thigh level to expose the biceps femoris and gluteous superficialis (right side), which were then separated by blunt dissection. The common sciatic nerve was exposed, isolated, and loosely ligated by four 5-0 chromic gut ligatures with <1 mm spacing between each. The surgical site was closed in layers—muscle is closed with 6.0 absorbable sutures, and the skin closed with wound clips. Animals were allowed to recover on a warming plate and were returned to their home cages when fully ambulatory. Animals were not be used for testing until at least 10 days following surgery.
To measure mechanical sensitivity, tactile allodynia was measured using calibrated von Frey filaments (Stoelting, Wood Dale, Ill.) as described by Chaplan et al. (Chaplan S., et al. J of Neuroscience Methods 1994, 53, 55-63). Filament strengths used were: 0.4, 0.6, 1.0, 2, 4, 6, 8, and 15 g. Rats were placed into inverted individual plastic containers (20×12.5×20 cm) on top of a suspended wire mesh grid, and acclimated to the test chambers for at least 20 minutes. Filaments were applied perpendicular to the mid-plantar paw surface with enough force to cause slight buckling and held in place for 6-8 seconds. Positive responses included an abrupt withdrawal of the paw from the stimulus or flinching behavior immediately following removal of the stimulus. The maximum force applied was 15 g. The 50% paw withdrawal threshold (PWT) was calculated in grams (g) using the up-down method of Dixon (Dixon W. Ann Rev Pharmacol Toxicol 1980, 20, 441-462). […] All compounds were orally administered at 10 mg/kg in 10% dimethyl sulfoxide/polyethylene glycol at a volume of 2.0 mL/kg, and mechanical allodynia was determined 60 minutes following compound administration. […]

Row | SMILES | inhibition in vivo at 10 mg/kg [%]
1 | O=C(c1cccc(C(F)(F)F)c1F)N1CCN2C[C@H](Oc3cnc(C4CC4)cn3)C[C@H]2C1 [Example 80, [(7R,8aS)-7-[(5-cyclopropylpyrazin-2-yl)oxy]hexahydropyrrolo[1,2-a]-pyrazin-2(1H)-yl][2-fluoro-3-(trifluoromethyl)phenyl]methanone] | 31
2 | CN[C@@H](C(=O)N1CCN2C[C@H](Oc3cnc(C4CC4)cn3)C[C@H]2C1)c1cccc(C(F)(F)F)c1 [Example 187, (2R)-1-[(7R,8aS)-7-[(5-cyclopropylpyrazin-2-yl)oxy]hexahydropyrrolo[1,2-a]pyrazin-2(1H)-yl]-2-(methylamino)-2-[3-(trifluoromethyl)phenyl]ethanone] | 67
3 | O=C(c1cc(F)c(Cl)cc1F)N1CCN2C[C@H](Oc3cnc(C4CC4)cn3)C[C@H]2C1 [Example 73, (4-chloro-2,5-difluorophenyl)[(7R,8aS)-7-[(5-cyclopropylpyrazin-2-yl)-oxy]hexahydropyrrolo[1,2-a]pyrazin-2(1H)-yl]methanone] | 48
4 | O=C(c1ccc(F)c(C(F)(F)F)c1)N1CCN2C[C@H](Oc3cnc(C4CC4)cn3)C[C@H]2C1 [Example 55, [(7R,8aS)-7-[(5-cyclopropylpyrazin-2-yl)oxy]hexahydropyrrolo[1,2-a]-pyrazin-2(1H)-yl][4-fluoro-3-(trifluoromethyl)phenyl]methanone] | 31
5 | O=C(c1cc(C(F)(F)F)ccc1Cl)N1CCN2C[C@H](Oc3cnc(C4CC4)cn3)C[C@H]2C1 [Example 72, [2-chloro-5-(trifluoromethyl)phenyl][(7R,8aS)-7-[(5-cyclopropylpyrazin-2-yl)oxy]hexahydropyrrolo[1,2-a]pyrazin-2(1H)-yl]methanone] | 20
6 | O=C(c1cccc(C(F)(F)F)c1)N1CCN2C[C@H](Oc3cnc(C4CC4)cn3)C[C@H]2C1 [Example 68, [(7R,8aS)-7-[(5-cyclopropylpyrazin-2-yl)oxy]hexahydropyrrolo[1,2-a]-pyrazin-2(1H)-yl][3-(trifluoromethyl)phenyl]methanone] | 28
7 | CN[C@H](C(=O)N1CCN2C[C@H](Oc3cnc(C4CC4)cn3)C[C@H]2C1)c1cccc(C(F)(F)F)c1 [Example 186, (2S)-1-[(7R,8aS)-7-[(5-cyclopropylpyrazin-2-yl)oxy]hexahydropyrrolo[1,2-a]pyrazin-2(1H)-yl]-2-(methylamino)-2-[3-(trifluoromethyl)phenyl]ethanone] | 91
8 | O=C(/C=C/c1ccc(F)c(C(F)(F)F)c1)N1CCN2C[C@H](Oc3cnc(C4CC4)cn3)C[C@H]2C1 [Example 154, (2E)-1-[(7R,8aS)-7-[(5-cyclopropylpyrazin-2-yl)oxy]hexahydropyrrolo[1,2-a]pyrazin-2(1H)-yl]-3-[4-fluoro-3-(trifluoromethyl)phenyl]prop-2-en-1-one] | 0
9 | O=C(c1cccc(C(F)(F)F)c1)N1CC(=O)N2C[C@H](Oc3cnc(C4CC4)cn3)C[C@H]2C1 [Example 178, (7R,8aS)-7-[(5-cyclopropylpyrazin-2-yl)oxy]-2-[3-(trifluoromethyl)-benzoyl]hexahydropyrrolo[1,2-a]pyrazin-4(1H)-one] | 28
10 | O=C(c1cccc(OC(F)(F)F)c1)N1CCN2C[C@H](Oc3cnc(C4CC4)cn3)C[C@H]2C1 [Example 81, [(7R,8aS)-7-[(5-cyclopropylpyrazin-2-yl)oxy]hexahydropyrrolo[1,2-a]-pyrazin-2(1H)-yl][3-(trifluoromethoxy)phenyl]methanone] | 39

Reference: patent US8669255B2, “Substituted octahydropyrrolo[1,2-a]pyrazines as calcium channel blockers” (AbbVie Inc., priority 2011, dated 2014)
